Results on 3 compounds are retold here after patent US9862679B2, “Potent and selective inhibitors of monoamine transporters; method of making; and use thereof” (priority 2013, dated 2018).

Series [1] in a line: Phase I metabolic stability in mouse liver microsomes (NADPH). The note with it: 10 μM. The series is classed as in vitro ADME. On the procedure:
(§1) Phase I and phase II metabolic stability assay for was conducted in mouse liver microsomes. For phase I metabolism, the reaction was carried out with 100 mM potassium phosphate buffer, pH 7.4, in the presence of NADPH regenerating system (1.3 mM NADPH, 3.3 mM glucose 6-phosphate, 3.3 mM MgCl2, 0.4 U/mL glucose-6-phosphate dehydrogenase, 50 μM sodium citrate). Reactions in duplicate were initiated by addition of the liver microsomes to the incubation mixture (compound final concentration was 10 μM; 0.5 mg/mL microsomes). For phase II glucuronidation reaction compound was added to TRIS-HCl buffer (50 mM, pH 7.5) with microsomes (0.5 mg/mL), along with MgCl2 (8 mM), and alamethicin (25 μg/mL) and pre-incubated at 37° C. The reaction was initiated (in duplicate) with UDPGA at a final concentration of 2 mM. Negative controls in the absence NADPH and UDPGA were carried for both phase I and phase II metabolism respectively, to determine the specific cofactor free degradation. […] At predetermined times (0, 15, 30 and 60 min) aliquots of the mixture were removed and the reaction quenched by addition of two times the volume of ice cold acetonitrile spiked with the internal standard. Compound disappearance was monitored over time using a liquid chromatography and tandem mass spectrometry (LC/MS/MS) method.
(§2) Compounds were separated on an Agilent 1290 UPLC system with a c18 column using a gradient run of 55:45-5:95 water:acetonitrile over 3.2 minutes and detected on an Agilent 6520 QTOF mass spectrometer.

Series [2] can be described thus: Phase II (glucuronidation, UDPGA) metabolic stability in mouse liver microsomes. In kind it is in vitro ADME. On the procedure:
as §1, §2
(In general: Liver microsomes are vesicles of endoplasmic reticulum, rich in cytochrome P450 enzymes.)

A short description of series [3]: Plasma pharmacokinetics in mice, 10 mg/kg i.v. and p.o. On the procedure: (§3) Plasma was harvested from blood by centrifugation. Additionally at two selected time points (i.e. 30 min and 2 h) brains were collected following both oral and IV dosing. Samples were extracted from plasma by a single one-step protein precipitation method (as described in bioanalysis section below). For brain tissue, whole brains were weighed and homogenized in two times the volume of acetonitrile, followed by vortexing and centrifugation. Once extracted, the samples were analyzed via LC/MS/MS (as described in bioanalysis section below). Non-compartmental-analysis module in WinNonlin™ (version 5.3) was used to assess pharmacokinetic parameters including maximal concentration (Cmax), time to Cmax (Tmax), area under the curve (AUClast), area extrapolated to infinity (AUC0-∞), terminal disposition rate constant (ke), and terminal half-life (t½).
(§4) Briefly, plasma samples were thawed on ice prior to extraction. Samples (50 μL) were extracted in 300 μL acetonitrile containing 1000 nM losartan as internal standard. For brain, 50 μL of the supernatant from homogenized tissue was extracted with 100 μL acetonitrile containing 1000 nM losartan as internal standard. Extracts were centrifuged at 16000×g at 4° C. for 10 minutes. Supernatants were transferred to a new siliconized tube and dried under N2 at 45° C. for 30 min. Samples were reconstituted with 100 μL of 30% acetonitrile, vortexed and centrifuged. Supernatants (95 μL) were transferred to a 250 μL polypropylene autosampler vials sealed with a Teflon cap and a volume of 10 μL was injected onto the ultra-performance liquid chromatography (UPLC) instrument for quantitative analysis using a temperature-controlled autosampler operating at 10° C.
(§5) The instrument was controlled by the Xcalibur software 2.3 (Thermo Scientific). Samples were introduced to the interface through Turbo Ion Spray with the temperature setting at 350° C.
(§6) Chromatographic analysis was performed using an Accela™ ultra high-performance system consisting of an analytical pump, and an autosampler coupled with TSQ Vantage mass spectrometer (Thermo Fisher Scientific Inc., Waltham Mass.).

Series [4] can be described thus: Metabolic stability in mouse plasma. The series is classed as in vitro ADME. The note with it: for Metabolic stability, Plasma (% remaining): mouse plasma, 10 μM. On the procedure: The metabolic stability was evaluated using mouse plasma and mouse liver microsomes.
Series [5] can be described thus: Brain concentrations in mice after IV and PO dosing at 10 mg/kg. The note with it: for concentration at 0.5 h / concentration at 2 h: male, CD1, mouse, in vivo, 10 mg/kg. On the procedure:
as §3, §4, §5, §6

Series [6] can be described thus: Negative control: mouse liver microsomes without cofactors. The series is classed as in vitro ADME. The note with it: for Metabolic stability, Negative Control (% remaining): microsomes without cofactors. As to the method:
as §1, §2

Series [7] concerns Swiss Webster mice. Put plainly: Mouse locomotor activity test. The note with it: up to 30 mg/kg, versus cocaine.
Setting [8] is: male, CD1, mouse, in vivo, iv, 10 mg/kg.
Setting [9] is: male, CD1, mouse, in vivo, po, 10 mg/kg.

In the case of `C[C@]12CC[C@H]3[C@@H](CCC4=CC(=O)CC[C@@]43C)[C@@H]1CC[C@@H]2O` [Testosterone, reference compound], the figures for the “Metabolic stability, Phase I (% remaining)” value in series [1] (0 min) and in series [1] (60 min) were 100% and 0%, respectively.
For `Cc1cc(=O)oc2cc(O)ccc12` [4 Methyl Umbelliferone, 4-methylumbelliferone, reference compound], the “Metabolic stability, Phase II (% remaining)” value is listed as 100% in series [2] (0 min) and 3.10% in series [2] (60 min).
For the compound `Fc1ccc(C(SCCNCCCc2ccccc2)c2ccc(F)cc2)cc1` [Compound 4g, N-(2-((bis(4-fluorophenyl)methyl)thio)ethyl)-3-phenylpropan-1-amine], the bioavailability (in general, dose-corrected exposure relative to a reference, in per cent) in series [3] (male, CD1, mouse, in vivo, 10 mg/kg, F % (absolute bioavailability), mouse, 10 mg/kg P.O. versus I.V.) is roughly 10%. Besides, the AUC(0-inf) – broadly, total exposure, with the tail of the curve extrapolated – in series [3] (setting [8]) amounted to 2040 µg·h/mL; in series [3] (setting [9]), 203 µg·h/mL. For the same compound, the AUC(0-t) (usually exposure summed from dosing to a finite time, without extrapolation to infinity) in series [3] (setting [8]) is 1.96 µg·h/mL; in series [3] (setting [9]) it was 0.155 µg·h/mL. In addition, the Tmax (commonly the time from dosing to the highest level) came out at 4.8 min in series [3] (setting [8]) and 30 min in series [3] (setting [9]). The compound also displayed a Ke in series [3] (mouse plasma, 10 mg/kg I.V.) of 0.6952. Also, the “Metabolic stability, Plasma (% remaining)” value was found to be 100% in series [4] (0 min), 100% in series [4] (15 min), 99% in series [4] (30 min) and 103% in series [4] (60 min). In series [4] (over a period of 60 minutes), the “stability in mouse plasma” value is “stable”. Besides, the concentration at 0.5 h in series [5] (iv) came to 4780 ng/g; in series [5] (po), 369 ng/g. In addition, the concentration at 2 h in series [5] (iv) was 14100 ng/g; in series [5] (po), 223 ng/g. Moreover, the brain penetrability entry in series [5] (mouse, following both p.o. and i.v. dosing) is listed as “excellent brain penetrability”. Also, the “Metabolic stability, Negative Control (% remaining)” value in series [6] (0 min) is listed as 100%; in series [6] (15 min), 104%; in series [6] (30 min) it was 97%; in series [6] (60 min), 119%. Also, the “metabolism in microsomes without the cofactors” value in series [6] (mouse liver microsomes, no NADPH/UDPGA) is given as “No metabolism was observed”. Besides, the figures for the “Metabolic stability, Phase I (% remaining)” value in series [1] (0 min), in series [1] (30 min) and in series [1] (60 min) were 100%, 95% and 77%, respectively. For the same compound, the “Metabolic stability, Phase II (% remaining)” value is 100% in series [2] (0 min), 90% in series [2] (15 min), 77% in series [2] (30 min) and 50% in series [2] (60 min). Further, in series [7], the “locomotor stimulation (ambulatory distance)” value is “does not produce locomotor stimulation”.
